Results on five molecules are retold here after US20250002843A1, “DERIVATION OF NAÏVE BOVINE EMBRYONIC STEM CELLS” (The Semex Alliance, priority 2021, published 2025).

The subject of this assay is ZP-free bovine embryo. Description: Bovine embryo attachment and outgrowth derivation (attachment, TE growth, ICM growth) in culture media. Format: cell-based. As to conditions: for effect on derivation efficiency on substitution in t2iLGöY media: bovine IL-6 10 ng/ml for human LIF, CGP77675 2 uM for PD0325901. The protocol: The protocol for coating was as follows: • 1. 4 drops of 50 μL of coating solution: 0.1% gelatin or different concentrations of EHS-ECM, provided as a 100× concentrated solution, were applied onto Nunc surface 35 mm^2 cell culture dish (see FIG. 1). • 2. Coated substrates were incubated in a humidified 5% CO2 incubator at 38.5° C. for 1 hour. • 3. After incubation, excess coating solution was removed, 50 uL of cell culture media was applied to the coated area, covered with 4 mL of mineral oil, and 50 ul of additional media was added into each drop. • 4. Media was allowed to equilibrate in a humidified 5% O2, 5% CO2 incubator at 38.5° C. for 2 hours. • 5. After ZP removal and adaptation of embryos, 1 embryo was placed into 1 micro culture drop to start outgrowth derivation. • 6. First attachment rate was determined at 48 hours of outgrowth culture and first media change was done right after first attachment determination. • 7. Attachment rate and outgrowth rate were evaluated every day and media were changed right after daily evaluation.
The protocol for generating LbL ECM coated substrate was as follows: • 1. 40 ul of 0.1% Gelatin type A (diluted with DMEM/F12 basal medium) was applied to the surface of a Nunc 35 mm^2 cell culture dish to make small drops. • 2. The dish was incubated in a humidified 5% CO2 incubator at 38.5° C. for 1 hour. • 3. After incubation, the gelatin solution was removed and 50 ul of DPBS with Ca^2+ and Mg^2+ was added to wash excess gelatin from drops, followed by removal using aspiration. The washing step was repeated 2 times more. • 4. 50 ul of 1×EHS-ECM was applied to the gelatin coated area and incubated in a humidified 5% CO2 incubator at 38.5° C. for 1 hour. • 5. After incubation, EHS-ECM solution was removed, and 50 ul of media was applied; drops were covered with 4 ml of mineral oil, and 50 ul of additional media was added into each drop. • 6. The media was allowed to equilibrate in 5% CO2 incubator for 2 hours.
• 1. Thawing media and outgrowth media was mixed at a 1:1 ratio. • 2. After post-thaw recovery, embryos were washed twice in adaptation media (1:1 ratio of thawing media (e.g. embryo handling media and outgrowth media (e.g. DMEM))) before being put in the adaptation drop in the Dish #1 (FIG. 10). • 4. After 1 hour of adaptation, embryos were then washed four times by transferring to washing drops (outgrowth media) in the Dish #2. • 5. Embryos were then moved to the outgrowth media (DMEM) for plating. • 6. Adapted embryos were then plated into LbL coated micro drop.
FBS (10091, Gibco™), Knock-out Serum Replacement (10828-10, Gibco™), Serum Replacement (S0638, Sigma), B27 supplement (17504-044, Gibco™), and N2 supplement (17502-048, Gibco™) were used for this test. Traditional mouse 2iL media (DMEM/F12+1% MEM non-essential amino acid+2 mM Glutamax+100 µM beta-mercaptoethanol+100 IU penicillin/streptomycin+growth factors/inhibitors including 3 µM CHIR99021, 1 μM PD0325901 and 100 ng/ml LIF) was used as a basal medium for the serum tests of 10% FBS and 20% KOSR, and 1×-, 2×-SR groups. t2iLGöY media (1:1 mixture of DMEM/F12 and neurobasal medium+1% MEM non-essential amino acid+2 mM Glutamax+50 μg/ml BSA, fraction V+100 μM beta-mercaptoethanol+100 IU penicillin/streptomycin+growth factors/inhibitors including 1 μM CHIR99021, 1 μM PD0325901, 10 μM Y27632, 2.5 μM Gö6983 and 10 ng/ml LIF) was used for the testing of N2B27 group. […]

As to `COc1cccc(-c2cn(-c3ccc(CCN4CCC(O)CC4)cc3)c3ncnc(N)c23)c1` [CGP77675], the “effect on derivation efficiency on substitution in t2iLGöY media” value was “negative effect”.

As to `COc1ccc2c(c1)c(C1=C(c3c[nH]c4ccccc34)C(=O)NC1=O)cn2CCCN(C)C` [Gö6983], the “derivation efficiency on addition in t2iLGoY” value (side-by-side with 2i, 2iLFk and NHSM media) is “improved”.

With `O=C(NOC[C@H](O)CO)c1ccc(F)c(F)c1Nc1ccc(I)cc1F` [PD0325901], the “derivation efficiency when withdrawn from media” value (MEK inhibitor withdrawn, embryo cavity formation) is “decreased”.

Consider insulin, for which the “hypoblast formation during outgrowth culture” value (addition of 20 μg/ml to the medium) is recorded as “not observed”.

B1: bovine IL-6: bovine IL-6, a member of the LIF superfamily (protein, UniProt P26892 30-208, looked up)
Interleukin-6: GPLGEDFKNDTTPGRLLLTTPEKTEALIKRMVDKISAMRKEICEKNDECESSKETLAENKLNLPKMEEKDGCFQSGFNQAICLIRTTAGLLEYQIYLDYLQNEYEGNQENVRDLRKNIRTLIQILKQKIADLITTPATNTDLLEKMQSSNEWVKNAKIILILRNLENFLQFSLRAIRMK
With B1, the “effect on derivation efficiency on substitution in t2iLGöY media” value is “negative effect”.
